Results from patent EP0930296A1, “FLUORINATED PROSTAGLANDIN DERIVATIVES AND MEDICINES” (ASAHI GLASS COMPANY LTD., priority 1996, dated 1998).

Experiments:
[1] = tested on: smooth muscle in the respiratory system; conditions: Izv. Akad. Nauk SSSR, Ser. Biol., 6, 831 (1989); cited from earlier work
[2] = tested on: smooth muscle in the digestive and circulatory systems; conditions: Izv. Akad. Nauk SSSR, Ser. Biol., 6, 831 (1989); cited from earlier work
[3] = tested on: crab-eating macaques; test: Effects on intraocular pressure (air-puff applanation tonometer, ketamine anesthesia); format: in vivo; conditions: for Change in ocular pressure after application: average of 8 subjects, relative to initial intraocular pressure
Protocol: The effect of a compound of the present invention on intraocular pressure was studied in accordance with the method disclosed in a report of a study on the effect of the tromethamine salt and the isopropyl ester of PGF2α on intraocular pressure in crab-eating macaques (Exp. Eye Res., 61, 677-683 (1995)).
Male crab-eating macaques weighing from 5 to 7.5 kg (5-10 years old) were used in the test. The intraocular pressures were measured just before and 2, 4 and 6 hours after application of the test compound under ketamine anesthasia (5-10 mg/kg, intramuscular administration) by means of an air-puff applanation tonometer.
The results of application of 0.1% (w/v) ophthalmic solution containing Latanoprost (reference pharmaceutical 1), which is known as a therapeutic agent for glaucoma are also shown in Table 1.

[4] = tested on: Japanese white rabbits; test: Test on eye irritations: conditions of the front of the eye, scores by improved Draize method; format: in vivo; conditions: for scored in total, as much as Latanoprost did: ratio of total scores, Table 2 to Table 3; for Condition of nictitating membrane / Edema of eyelid conjunctiva / Iridial congestion / Opacity of the cornea / Opaque fraction of the cornea / Rubor of eyelid conjunctiva / Rubor of supraocular conjunctiva / Secretions / Total score: ten times at 30 minute intervals; for Total score: sum of the scores
Protocol: The eye irritation caused by a compound of the present invention was investigated in accordance with the method of Fukui et al. ("[…]-no-rinsho", 4277-89 (1970)). Male Japanese white rabbits weighing about 2.5 kg were used in the test. A test compound was applied into the conjunctival sac of a right eye ten times at 30 minute intervals. The conditions of the front and the anterior chamber of the eye were observed just before and 1, 2 and 4 hours after the final application, and the damage to the cornea was observed 4 hours after the final application. Into the conjunctival sac of a left eye, the base only, which was free from the test compound, was applied. A) Conditions of the front of the eye: Scores were determined on the basis of the following scale of damage to the eye according to the improved Draize method. • a) Opacity • No cloud (normal); 0 • Scattered clouds in pervasive regions (the details of the iris are clearly visible); 1 • Easily distinguishable translucent regions (details of the iris are not visible so clearly); 2 • Opaque regions, details of the iris are invisible, and the size of the pupil is barely recognizable; 3 • Unclear, the iris is invisible; 4 • b) The size of the region of the cornea falling into the above • None; 0 • More than 0 and not more than 1/4; 1 • More than 1/4 and less than 1/2; 2 • More than 1/2 and less than 3/4; 3 • More than 3/4 and all over; 4 • Normal; 0 • More […], stasis, swelling, congestion around the cornea than normal (any or combinations of them), the iris is still responsive to light (positive for slow reaction); 1 • Irresponsible to light, and bleeding and apparent destruction (any or all of them); 2 • a) Rubor of the eyelid conjunctiva • No congestion; 0 • Slightly reddish mucosae and slight but recognizable vasodilation of the edge of the eyelid; 0.5 • Clearly abnormal congestion, appreciably red mucosae and remarkable swelling; 1 • Pretty remarkably red ocular mucosae and slightly unclear peripheral vessels; 2 • More intense conditions than 2 and pervasive beef-like rubor; 3 • b) Edema of the eyelid conjunctiva • Not swollen; 0 • Slight tendency of edema; 0.5 • More swollen than normal; 1 • Apparently swollen together with part of the integument of the eyelid; 2 • Swollen with about half of the eyelid sagging; 3 • Swollen with about half to all of the eyelid sagging; 4 • c) Rubor of the supraocular conjunctiva • No congestion; 0 • Slight vasodilation around the cornea; 0.5 • More remarkable vasodilation; 1 • Remarkable vasodilation toward the edge of the eyelid or remarkable rubor; 2 • d) Condition of the nictitating membrane • No congestion; 0 • Recognizable vasodilation and tendency of edema; 0.5 • More appreciable vasodilation and rubor of the edge of the eyelid; 1 • Extreme vasodilation and remarkable rubor of the entire nictitating membrane; 2 • e) Secretions • No secretions; 0 • A certain amount more than normal (exclusive of small amount of secretions found at the medial angle of the eye of a normal animal); 1 • Some secretions with a wet eyelid and neighboring fur; 2 • Some secretions with a wet eyelid and a large area of wet fur around the eye; 3 • B) Conditions of the anterior chamber: After the observation of the front of the eye, the inside of the anterior chamber was checked for flares under a slit lamp. • C) Damage to the cornea: After observation of the conditions of the front and anterior chamber of the eye 4 hours after the final application, the cornea was stained with fluorescein, and the remaining dye on the cornea was observed under a slit lamp. […] Further, to comprehensively evaluate damage to the front of the eye, the sum of the scores was calculated as a total score.

[5] = 2 hours, 20 µℓ of 0.1% (w/v) ophthalmic solution
[6] = 4 hours, 20 µℓ of 0.1% (w/v) ophthalmic solution
[7] = 6 hours, 20 µℓ of 0.1% (w/v) ophthalmic solution
[8] = After 1 hr, 0.01% (w/v) ophthalmic solution (pharmaceutical 3), 50 µℓ, average of three subjects
[9] = After 2 hrs, 0.01% (w/v) ophthalmic solution (pharmaceutical 3), 50 µℓ, average of three subjects
[10] = After 4 hrs, 0.01% (w/v) ophthalmic solution (pharmaceutical 3), 50 µℓ, average of three subjects
[11] = After 1 hr, 0.1% (w/v) ophthalmic solution (reference pharmaceutical 1)
[12] = After 2 hrs, 0.1% (w/v) ophthalmic solution (reference pharmaceutical 1)
[13] = After 4 hrs, 0.1% (w/v) ophthalmic solution (reference pharmaceutical 1)

CCCCCC(F)/C=C/[C@@H]1[C@@H](C/C=C\CCCC(=O)O)[C@@H](O)C[C@H]1O (stereo partly drawn) [15-Fluoro-15-deoxy PGF2α, 15-fluoro-15-deoxy PGF2α]
contraction action on smooth muscle in the respiratory system as compared with the naturally occurring PGF2α [1]: 100 fold
relaxation action on smooth muscle in the respiratory system as compared with the naturally occurring PGF2α [1]: 1000 fold
action on the smooth muscle in the digestive and circulatory systems relative to the naturally occurring PGF2α [2]: comparable

CC(C)OC(=O)CCC/C=C\C[C@@H]1[C@@H](/C=C/C(F)COc2cc(Cl)cc(Cl)c2)[C@H](O)C[C@@H]1O (single isomer, unassigned) [Compound A, 16-(3,5-dichlorophenoxy)-15-deoxy-15-fluoro-17,18,19,20-tetranorprostaglandin F2α isopropyl ester]
Change in ocular pressure after application ([3]; 2 hours, 20 µℓ of 0.01% (w/v) ophthalmic solution): -0.8 mmHg
Change in ocular pressure after application [3, 5]: -1.0 mmHg
Change in ocular pressure after application ([3]; 4 hours, 20 µℓ of 0.01% (w/v) ophthalmic solution): -1.8 mmHg
Change in ocular pressure after application [3, 6]: -1.4 mmHg
lowered the intraocular pressure, times as much as Latanoprost ([3]; 6 hours after application): about 1.5 times
Change in ocular pressure after application ([3]; 6 hours, 20 µℓ of 0.01% (w/v) ophthalmic solution): -3.0 mmHg
Change in ocular pressure after application [3, 7]: -3.6 mmHg
scored in total, as much as Latanoprost did ([4]; 1 hour after application): about 1/5
scored in total, as much as Latanoprost did ([4]; 2 hours after application): 1/2
scored in total, as much as Latanoprost did ([4]; 4 hours after application): 1/3
Condition of nictitating membrane [4, 8]: 0.2
Edema of eyelid conjunctiva [4, 8]: 0
Iridial congestion [4, 8]: 0
Opacity of the cornea [4, 8]: 0
Opaque fraction of the cornea [4, 8]: 0
Rubor of eyelid conjunctiva [4, 8]: 0
Rubor of supraocular conjunctiva [4, 8]: 0.2
Secretions [4, 8]: 0
Condition of nictitating membrane [4, 9]: 0.2
Edema of eyelid conjunctiva [4, 9]: 0
Iridial congestion [4, 9]: 0
Opacity of the cornea [4, 9]: 0
Opaque fraction of the cornea [4, 9]: 0
Rubor of eyelid conjunctiva [4, 9]: 0.2
Rubor of supraocular conjunctiva [4, 9]: 0.5
Secretions [4, 9]: 0
Condition of nictitating membrane [4, 10]: 0
Edema of eyelid conjunctiva [4, 10]: 0
Iridial congestion [4, 10]: 0
Opacity of the cornea [4, 10]: 0
Opaque fraction of the cornea [4, 10]: 0
Rubor of eyelid conjunctiva [4, 10]: 0
Rubor of supraocular conjunctiva [4, 10]: 0.2
Secretions [4, 10]: 0
Total score ([4]; After 1 hr, 0.01% (w/v) ophthalmic solution (pharmaceutical 3), 50 µℓ): 0.4
Total score ([4]; After 2 hrs, 0.01% (w/v) ophthalmic solution (pharmaceutical 3), 50 µℓ): 0.9
Total score ([4]; After 4 hrs, 0.01% (w/v) ophthalmic solution (pharmaceutical 3), 50 µℓ): 0.2
irritation of the front of the eye ([4]; when applied to the eye, slight congestion of the conjunctiva was observed): little irritant

CC(C)OC(=O)CCC/C=C\C[C@@H]1[C@@H](CC[C@@H](O)CCc2ccccc2)[C@H](O)C[C@@H]1O [Latanoprost, 13,14-dihydro-17-phenyl-18,19,20-trinor PGF2α isopropyl ester, reference compound]
Change in ocular pressure after application [3, 5]: -0.6 mmHg
Change in ocular pressure after application [3, 6]: -2.6 mmHg
Change in ocular pressure after application [3, 7]: -2.3 mmHg
Condition of nictitating membrane [4, 11]: 0.3
Edema of eyelid conjunctiva [4, 11]: 0
Iridial congestion [4, 11]: 0
Opacity of the cornea [4, 11]: 0
Opaque fraction of the cornea [4, 11]: 0
Rubor of eyelid conjunctiva [4, 11]: 0.5
Rubor of supraocular conjunctiva [4, 11]: 0.8
Secretions [4, 11]: 0.3
Condition of nictitating membrane [4, 12]: 0.3
Edema of eyelid conjunctiva [4, 12]: 0
Iridial congestion [4, 12]: 0
Opacity of the cornea [4, 12]: 0
Opaque fraction of the cornea [4, 12]: 0
Rubor of eyelid conjunctiva [4, 12]: 0.5
Rubor of supraocular conjunctiva [4, 12]: 0.8
Secretions [4, 12]: 0
Condition of nictitating membrane [4, 13]: 0.3
Edema of eyelid conjunctiva [4, 13]: 0
Iridial congestion [4, 13]: 0
Opacity of the cornea [4, 13]: 0
Opaque fraction of the cornea [4, 13]: 0
Rubor of eyelid conjunctiva [4, 13]: 0
Rubor of supraocular conjunctiva [4, 13]: 0.3
Secretions [4, 13]: 0
Total score [4, 11]: 1.9
Total score [4, 12]: 1.6
Total score [4, 13]: 0.6
